Reference: publication PMC6368403, “Identification of a bilirubin receptor that may mediate a component of cholestatic itch” (eLife, 2019)
Several values for one entry are separate records, joined by “and”; a condition that tells them apart may be missing. Identical values can stand only once.

Tests used:
[1] = tested on: mice; test: Scratching bouts after subcutaneous injection into the nape of the neck / back; format: in vivo, mouse; conditions: for Scratching bouts binned according to 5 min intervals (time course of itch behavior): one column per mouse, values of a mouse sum to 1 (Fig 1B)
Method: (§1) All applicable behavioral tests were performed and analysed with the experimenter blind to genotype. […] On the day before the experiment, animals were placed in the test chamber for 30 min before being subjected to a series of three mock injections with 5 min break periods in between. On the day of the experiment, animals were first allowed to acclimatize to the test chamber for 10 min before injection. […] A bout of scratching was defined as a continuous scratching movement with either hindpaw directed at the area of the injection site. In the cheek injection model, a wipe was defined as a single forepaw stroking the site of the injection. Use of both forepaws on the face or cheek was considered as grooming behavior. […] For H1R block, 30 mg/kg of cetirizine HCl (pH 7.4) was given intraperitoneally thirty minutes prior to injection of bilirubin. Licking behavior was quantified in seconds and identified as the licking of the toes or footpad of the hind paw site of injection that was neither preceded nor followed by licking of any other portion of the body.

[2] = tested on: Mrgprs; test: Ca2+ imaging screen of HEK293 cells transiently expressing other Mrgprs (MRGPRA3, MRGPRD, MRGPRX1, MRGPRX2 and others); format: cell-based; conditions: 50 µM bilirubin, 12 Mrgprs screened
Method: All cultured cells were maintained in DMEM supplemented with 10% FBS and 1% Penicillin/Streptomycin at 37°C, 5% CO2. All data included were generated from cells tested for mycoplasma and found to be negative. Cells were imaged in calcium imaging buffer (CIB; 10 mM HEPES, 1.2 mM NaHCO3, 130 mM NaCl, 3 mM KCl, 2.5 mM CaCl2, 0.6 mM MgCl2, 20 mM glucose, and 20 mM sucrose at pH 7.4 and 290–300 mOsm). To monitor changes in intracellular [Ca^2+] ([Ca^2+]i), cells were loaded with either Fura 2-AM (HEK293 cells) or Fluo 4-AM (DRG neurons and mast cells) for 30 min in the dark at 37°C in CIB just prior to imaging. With Fura 2-AM, emission at 510 nm was monitored from excitation at both 340 nm and 380 nm. With Fluo 4-AM, emission at 520 nm was monitored from excitation at 488 nm. Cells were identified as responding if the intracellular [Ca^2+] rose by either 50% compared to baseline or 50% compared to the [Ca^2+]i change assayed during addition of 50 mM KCl (neurons only). […]
In initial screens, HEK293 cells stably expressing the murine G-protein alpha-subunit Gα15, a unique Gα protein that non-selectively couples a large variety of GPCRs to phospholipase C ^30, were plated on poly-D-lysine-coated coverslips and transiently transfected with constructs encoding the MRGRPR of interest. […] Response was then monitored at 5 s intervals for an additional 60 s.

[3] = tested on: mice; test: Cheek injection model: scratching bouts and wiping; format: in vivo, mouse
Method: as §1, with “genotype. […] There were no significant differences in itch between male and female mice.” for “genotype.”

[4] = biological target: T1, MRGPRX4 (Homo sapiens, UniProt Q96LA9); test: Microscale thermophoresis binding to MRGPRX4; set-up: microscale thermophoresis response (binding isotherm), mean: unit not given here; conditions: for microscale thermophoresis response (binding isotherm), mean: mean of n=3, Fig 2-J; for Binding to MRGPRX4: microscale thermophoresis
T1 construct: expressed in transfected cells
Method: Binding isotherms for MRGPRA1, MRGPRX4, and MRGRPC11 towards various ligands were determined by microscale thermophoresis with the NanoTemper monolith NT.115 instrument ([Duhr and Braun, 2006]). Ligands were pre-incubated with 10 µM of the GFP-tagged receptor of interest for 5 min at room temperature in binding buffer (20 mM Tris and 150 mM NaCl at pH 8.8). Receptors were crudely purified as a membrane fraction from cells stably expressing the receptor ([Vasavda et al., 2017]). Haem metabolites were freshly dissolved in 0.1 M NaOH in dim light and then diluted into assay buffer. Lyophilized BAM8-22 was dissolved in binding buffer. The pH of each ligand was evaluated prior to incubation with a receptor. Samples were loaded into NT.115 Hydrophobic-Treated Capillaries from NanoTemper. Microscale thermophoretic experiments were executed using 20% LED power and 15% MST power. KDs were calculated using the law of mass action with data from three independent experiments. Binding between bilirubin and receptors was evaluated purely thermophoretically, whereas binding between BAM8-22 and MRGPRC11 was evaluated by T-Jump. Samples with dramatic deviations in initial fluorescence were excluded.

T1 sequence (Q96LA9 whole entry): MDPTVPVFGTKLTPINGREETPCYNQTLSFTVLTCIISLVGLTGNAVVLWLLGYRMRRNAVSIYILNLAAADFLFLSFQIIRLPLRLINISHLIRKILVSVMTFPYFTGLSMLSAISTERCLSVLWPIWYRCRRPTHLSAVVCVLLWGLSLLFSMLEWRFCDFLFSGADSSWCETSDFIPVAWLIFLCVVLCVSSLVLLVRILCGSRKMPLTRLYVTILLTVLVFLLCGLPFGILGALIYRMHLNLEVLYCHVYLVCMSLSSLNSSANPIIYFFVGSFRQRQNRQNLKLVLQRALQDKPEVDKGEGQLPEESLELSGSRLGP

Compound | microscale thermophoresis response (binding isotherm), mean ([4]; [Ligand] 3.05e-8 M) | microscale thermophoresis response (binding isotherm), mean ([4]; [Ligand] 6.1e-8 M) | microscale thermophoresis response (binding isotherm), mean ([4]; [Ligand] 1.221e-7 M) | microscale thermophoresis response (binding isotherm), mean ([4]; [Ligand] 2.441e-7 M) | microscale thermophoresis response (binding isotherm), mean ([4]; [Ligand] 4.883e-7 M) | microscale thermophoresis response (binding isotherm), mean ([4]; [Ligand] 9.766e-7 M) | microscale thermophoresis response (binding isotherm), mean ([4]; [Ligand] 1.9531e-6 M) | microscale thermophoresis response (binding isotherm), mean ([4]; [Ligand] 3.9063e-6 M) | microscale thermophoresis response (binding isotherm), mean ([4]; [Ligand] 7.8125e-6 M) | microscale thermophoresis response (binding isotherm), mean ([4]; [Ligand] 1.5625e-5 M) | microscale thermophoresis response (binding isotherm), mean ([4]; [Ligand] 3.125e-5 M) | microscale thermophoresis response (binding isotherm), mean ([4]; [Ligand] 6.25e-5 M) | microscale thermophoresis response (binding isotherm), mean ([4]; [Ligand] 0.000125 M) | microscale thermophoresis response (binding isotherm), mean ([4]; [Ligand] 0.00025 M) | microscale thermophoresis response (binding isotherm), mean ([4]; [Ligand] 0.0005 M) | microscale thermophoresis response (binding isotherm), mean ([4]; [Ligand] 0.001 M) | Binding to MRGPRX4 [4] | other results
C=CC1=C(C)/C(=C/c2[nH]c(Cc3[nH]c(/C=C4\NC(=O)C(C)=C4C=C)c(C)c3CCC(=O)O)c(CCC(=O)O)c2C)NC1=O [bilirubin, bilirubin IXα] | 7.584 | 6.444 | 6.442 | 4.051 | -2.46 | -5.393 | 5.84 | 1.017 | 9.66 | 19.4349 | 35.6519 | 68.0309 | 97.8035 | 117.52 | 123.698 | 119.096 | – | Scratching bouts ([1]; 60 μg bilirubin pre-incubated with 1% human serum albumin (+HSA), nape, WT mice (Fig 1A)): 7; Scratching of A1 KO animals versus WT mice ([1]; 60 µg injected): scratched significantly less than WT mice; Scratching of BVR KO mice ([1]; 150 µg chloroquine or 60 µg bilirubin, 30 min): scratched normally; Scratching bouts to chloroquine plus bilirubin ([1]; 1 mM chloroquine plus 500 µM bilirubin injected into back): Synergism of bilirubin with chloroquine pruritus; Less scratching of Mrgpr-cluster KO animals than wild type mice ([1]; bilirubin injection (Fig 1C)): approximately 75%; Scratching ([1]; bilirubin pre-incubated with excess human serum albumin): elicited fewer scratches; Scratching at the site of injection ([1]; pathophysiologic concentrations, s.c. into the nape): stimulated scratching in a dose-dependent manner; Scratching bouts binned according to 5 min intervals (time course of itch behavior) ([1]; time 5 min): 0 (10×) and 0.09677 and 0.08333 and 0.1304 and 0.2264 and 0.2353 and 0.07317; Scratching bouts binned according to 5 min intervals (time course of itch behavior) ([1]; time 10 min): 0.1786 and 0.5556 and 0.32 and 0.3226 and 0 (4×) and 0.1304 and 0.04 and 0.15 and 0.2642 and 0.1026 and 0.3529 and 0.2941 and 0.05128; Scratching bouts binned according to 5 min intervals (time course of itch behavior) ([1]; time 15 min): 0.25 and 0.4444 and 0.32 and 0.2258 and 0.1667 and 0.3913 and 0.66 and 0.1 and 0.1698 and 0.5116 and 0.2051 and 0.5 and 0.2941 and 0.2647 and 0.1951 and 0.2308; Scratching bouts binned according to 5 min intervals (time course of itch behavior) ([1]; time 20 min): 0.07143 and 0 (2×) and 0.16 and 0.06452 and 0.08333 and 0.3043 and 0.1 and 0.45 and 0.1509 and 0.4419 and 0.4872 and 0.1364 and 0.08824 and 0.2195 and 0.1026; Scratching bouts binned according to 5 min intervals (time course of itch behavior) ([1]; time 25 min): 0.07143 and 0 (3×) and 0.2 and 0.03226 and 0.3333 and 0.04348 and 0.06 and 0.15 and 0.04651 and 0.2727 and 0.1765 and 0.05882 and 0.3659 and 0.6154; Scratching bouts binned according to 5 min intervals (time course of itch behavior) ([1]; time 30 min): 0.4286 and 0 (5×) and 0.2581 and 0.3333 and 0.14 and 0.15 and 0.1887 and 0.2051 and 0.09091 and 0.1765 and 0.05882 and 0.1463; Calcium response of other Mrgprs to bilirubin [2]: No other Mrgpr among the 12 that we screened responded; Wiping ([3]; 6 µg bilirubin into the cheek, 10 min): neither wiping; Scratching after cheek injection ([3]; cheek, 10 µl, 30 min): prompted dose-dependent scratching
C=CC1=C(C)/C(=C/c2[nH]c(Cc3[nH]c(/C=C4\NC(=O)C(C)=C4C=C)c(C)c3CCC(=O)NCCS(=O)(=O)O)c(CCC(=O)NCCS(=O)(=O)O)c2C)NC1=O [conjugated bilirubin, bilirubin ditaurate] | 14.6332 | -0.3949 | -3.186 | 10.7277 | 1.18 | 3.799 | 8.125 | 1.993 | 2.933 | -0.662 | 8.64 | 18.6992 | 39.4499 | 46.5687 | 49.0399 | 52.0554 | lower affinity than unconjugated bilirubin | –
hemin | 0 | 0 | 0 | 0 | 0 | 0 | 0 | 0 | 0 | 0 | 0 | 0 | 0 | 0 | 0 | – | did not bind | Scratching behavior ([1]; metabolite injected into mice (Fig 1D)): did not induce scratching
